Test results as given in US6855730B2, “3-methylidenyl-2-indolinone modulators of protein kinase” (Sugen, Inc., priority 1998, dated 2005).

Test system: HUV-EC-C cells (VEGF, Flk-1/KDR)
Experiment: HUV-EC-C assay, VEGF-stimulated 3H-thymidine incorporation
Format: cell-based
Details: Homo sapiens, read-out: HUVEC-VEGF IC50

| IC50 | Structure (SMILES) |
| --- | --- |
| < 30 nM | NC(=O)CCc1c(/C=C2\C(=O)Nc3ccccc32)[nH]c2c1CCCC2 [Example 199, 3-[2-(2-Oxo-1,2-dihydroindol-3-ylidenemethyl)-4,5,6,7-tetrahydro-1H-indol-3-yl]-propionamide] |
| < 70 nM | Cc1c[nH]c(/C=C2\C(=O)Nc3ccc(Cl)cc32)c1CCC(=O)O [Example 216, 3-[2-(5-Chloro-2-oxo-1,2-dihydroindol-3-ylidenemethyl)-4-methyl-1H-pyrrol-3-yl]-propionic acid] |
| 0.3 nM | O=C(O)CCc1c(/C=C2\C(=O)Nc3ccc(Br)cc32)[nH]c2c1CCCC2 [Example 192, 3-[2-(5-Bromo-2-oxo-1,2-dihydroindol-3-ylidenemethyl)-4,5,6,7-tetrahydro-1H-indol-3yl]-propionic acid] |
| 0.04 nM | O=C(O)CCc1c(/C=C2\C(=O)Nc3ccc(Cl)cc32)[nH]c2c1CCCC2 [Example 191, 3-[2-(5-Chloro-2-oxo-1,2-dihydroindol-3-ylidenemethyl)-4,5,6,7-tetrahydro-1H-indol-3-yl]-propionic acid] |
| 20 nM | COc1ccc2c(c1)NC(=O)/C2=C\c1[nH]c2c(c1CCC(=O)O)CCCC2 [Example 196, 3-[2-(6-Methoxy-2-oxo-1,2-dihydroindol-3-ylidenemethyl)-4,5,6,7-tetrahydro-1H-indol-3-yl]-propionic acid] |
| < 3 nM | CN(C)C(=O)CCc1c(/C=C2\C(=O)Nc3ccccc32)[nH]c2c1CCCC2 [Example 197, N,N-Dimethyl-3-[2-(2-oxo-1,2-dihydroindol-3-ylidenemethyl)-4,5,6,7-tetrahydro-1H-indol-3-yl]-propionamide] |
| < 30 nM | O=C(CCc1c(/C=C2\C(=O)Nc3ccccc32)[nH]c2c1CCCC2)NCCN1CCOCC1 [Example 202, N-(2-Morpholin-4-ylethyl)-3-[2-(2-oxo-1,2-dihydroindol-3-ylidenemethyl)-4,5,6,7-tetrahydro-1H-indol-3-yl]-propionamide] |
| 1 nM | Cc1ccc2c(c1)/C(=C/c1[nH]c3c(c1CCC(=O)O)CCCC3)C(=O)N2 [Example 194, 3-[2-(5-Methyl-2-oxo-1,2-dihydroindol-3-ylidenemethyl)-4,5,6,7-tetrahydro-1H-indol-3-yl]-propionic acid] |
| < 30 nM | CNC(=O)CCc1c(/C=C2\C(=O)Nc3ccccc32)[nH]c2c1CCCC2 [Example 201, N-Methyl-3-[2-(2-oxo-1,2-dihydroindol-3-ylidenemethyl)-4,5,6,7-tetrahydro-1H-indol-3-yl]-propionamide] |

| Structure (SMILES) | IC50 |
| --- | --- |
| Cc1c[nH]c(/C=C2\C(=O)Nc3cccc(C)c32)c1CCC(=O)O [Example 218, 3-[2-(4-Methyl-2-oxo-1,2-dihydroindol-3-ylidenemethyl)-4-methyl-1H-pyrrol-3-yl]-propionic acid] | < 70 nM |
| Cc1c[nH]c(/C=C2\C(=O)Nc3ccc(Br)cc32)c1CCC(=O)O [Example 220, 3-[2-(5-Bromo-2-oxo-1,2-dihydroindol-3-ylidenemethyl)-4-methyl-1H-pyrrol-3-yl]-propionic acid] | 40 nM |

Target: T1, 3T3 cell line genetically engineered to express human EGF-R (Homo sapiens, UniProt P00533)
T1 construct: expressed in transfected cells; host or cells: 3T3
Experiment: EGF-induced BrdU incorporation assay
Format: cell-based
Details: read-out: BrdU EGF driven IC50
Description: The cellular/catalytic assays described herein are performed in an ELISA format. The general procedure is as follows: a compound is introduced to cells expressing the test kinase, either naturally or recombinantly, for a selected period of time after which, if the test kinase is a receptor, a ligand known to activate the receptor is added. The cells are lysed and the lysate is transferred to the wells of an ELISA plate previously coated with a specific antibody recognizing the substrate of the enzymatic phosphorylation reaction. Non-substrate components of the cell lysate are washed away and the amount of phosphorylation on the substrate is detected with an antibody specifically recognizing phosphotyrosine compared with control cells that were not contacted with a test compound. The cellular/biologic assays described herein measure the amount of DNA made in response to activation of a test kinase, which is a general measure of a proliferative response. The general procedure for this assay is as follows: a compound is introduced to cells expressing the test kinase, either naturally or recombinantly, for a selected period of time after which, if the test kinase is a receptor, a ligand known to activate the receptor is added. After incubation at least overnight, a DNA labeling reagent such as Bromodeoxyuridine (BrdU) or 3H-thymidine is added. The amount of labeled DNA is detected with either an anti-BrdU antibody or by measuring radioactivity and is compared to control cells not contacted with a test compound. […]
Protocol • (1) Cells are seeded at 8000 cells/well in 10% CS, 2mM Gin in DMEM, in a 96 well plate. Cells are incubated overnight at 37° C. in 5% CO2. • (2) After 24 hours, the cells are washed with PBS, and then are serum starved in serum free medium (0% CS DMEM with 0.1% BSA) for 24 hours. • (3) On day 3, ligand (EGF, 2 nM, prepared in DMEM with 0.1% BSA) and test compounds are added to the cells simultaneously. The negative control wells receive serum free DMEM with 0.1% BSA only, the positive control cells receive the ligand (EGF) but no test compound. Test compounds are prepared in serum free DMEM with ligand in a 96 well plate, and serially diluted for 7 test concentrations. • (4) After 20 hours of ligand activation, diluted BrdU labeling reagent (1:100 in DMEM, 0.1% BSA) is added and the cells are incubated with BrdU (final concentration=10 μM) for 1.5 hours. • (5) After incubation with labeling reagent, the medium is removed by decanting and tapping the inverted plate on a paper towel. FixDenat solution is added (50 μl/well) and the plates are incubated at room temperature for 45 minutes on a plate shaker. • (6) The FixDenat solution is thoroughly removed by decanting and tapping the inverted plate on a paper towel. Milk is added (5% dehydrated milk in PBS, 200 μl/well) as a blocking solution and the plate is incubated for 30 minutes at room temperature on a plate shaker. • (7) The blocking solution is removed by decanting and the wells are washed once with PBS. Anti-BrdU-POD solution (1:100 dilution in PBS, 1% BSA) is added (100 μ/well) and the plate is incubated for 90 minutes at room temperature on a plate shaker. • (8) The antibody conjugate is thoroughly removed by decanting and rinsing the wells 5 times with PBS, and the plate is dried by inverting and tapping on a paper towel. • (9) TMB substrate solution is added (100 μl/well) and incubated for 20 minutes at room temperature on a plate shaker until color development is sufficient for photometric detection. • (10) The absorbance of the samples are measured at 410 nm (in “dual wavelength” mode with a filter reading at 490 nm, as a reference wavelength) on a Dynatech ELISA plate reader.

| IC50 | Structure (SMILES) |
| --- | --- |
| > 50000 nM | COc1ccc2c(c1)/C(=C/c1[nH]cc(C)c1CCC(=O)O)C(=O)N2 [Example 222, 3-[2-(5-Methoxy-2-oxo-1,2-dihydroindol-3-ylidenemethyl)-4-methyl-1H-pyrrol-3-yl]-propionic acid] |
| 6500 nM | COc1c(C(C)C)cc(/C=C2/C(=O)Nc3ccc(Cl)cc32)cc1C(C)C [Example 2, 5-Chloro-3-(3,5-diisopropyl-4-methoxybenzylidene)-1,3-dihydroindol-2-one] |
| > 50000 nM | Cc1c[nH]c(/C=C2\C(=O)Nc3ccc(Cl)cc32)c1CCC(=O)O [Example 216, 3-[2-(5-Chloro-2-oxo-1,2-dihydroindol-3-ylidenemethyl)-4-methyl-1H-pyrrol-3-yl]-propionic acid] |
| 6600 nM | COc1c(C(C)C)cc(/C=C2/C(=O)Nc3ccccc32)cc1C(C)C [Example 1, 3-(3,5-Diisopropyl-4-methoxybenzylidene)-1,3-dihydroindol-2-one] |
| > 50000 nM | COc1ccc2c(c1)NC(=O)/C2=C\c1[nH]cc(C)c1CCC(=O)O [Example 217, 3-[2-(6-Methoxy-2-oxo-1,2-dihydroindol-3-ylidenemethyl)-4-methyl-1H-pyrrol-3-yl]-propionic acid] |

| Structure (SMILES) | IC50 |
| --- | --- |
| Cc1c[nH]c(/C=C2\C(=O)Nc3cccc(C)c32)c1CCC(=O)O [Example 218, 3-[2-(4-Methyl-2-oxo-1,2-dihydroindol-3-ylidenemethyl)-4-methyl-1H-pyrrol-3-yl]-propionic acid] | 43500 nM |
| Cc1c[nH]c(C=C2C(=O)Nc3cc(Cl)ccc32)c1CCC(=O)O [Example 219, 3-[2-(6-Chloro-2-oxo-1,2-dihydroindol-3-ylidenemethyl)-4-methyl-1H-pyrrol-3-yl]-propionic acid] | > 50000 nM |
| Cc1c[nH]c(/C=C2\C(=O)Nc3ccc(Br)cc32)c1CCC(=O)O [Example 220, 3-[2-(5-Bromo-2-oxo-1,2-dihydroindol-3-ylidenemethyl)-4-methyl-1H-pyrrol-3-yl]-propionic acid] | > 50000 nM |
| Cc1c[nH]c(/C=C2\C(=O)Nc3ccccc32)c1CCC(=O)O [Example 215, 3-[4-Methyl-2-(2-oxo-1,2-dihydroindol-3-ylidenemethyl)-1H-pyrrol-3-yl]-propionic acid] | > 100000 nM |
